# Measured values reported in patent US7572903B1, “Method of regulation of bacterial persister status” (priority 2005, dated 2009).
# Where two headings read alike, the source gives them in different places. Bridge positions count the residues as written; N and C are the ends. Square brackets hold non-standard residues; d marks the D form. Peptide text beside a SMILES is read from it. * marks the point of attachment. Ileψ(thiazoline)Cys = CC[C@H](C)[C@H](N)C1=N[C@H](C(=O)*)CS1; dOrn = NCCC[C@@H](N)C(=O)O
# Columns and labels:
# Assay type in all cases: cell-based, Escherichia coli
# [1] = test system: E. coli K-12 C600::mTn5gusA-pgfp21; conditions: mid-log phase
# Protocol: In the latter set of experiments reaction mixtures included nutrient broth (25% normal strength) in order to facilitate growth during the exposure. […] At various time intervals samples (0.1 mL) were removed and serially diluted either in sterile phosphate buffered saline (pH 7, 0.1M) or lecithin (2% w/v)—tween 80 (3% w/v) broth as a specific neutralizer of quaternary ammonium biocides (Wright, et al., J. App. Bacterial. 62:309-314, 1986). Samples of appropriate dilutions were plated, in triplicate, onto nutrient agar and colonies counted after 16 hour incubation at 37° C. Survival was expressed relative to untreated control suspensions.
# (§1) When cells were required for culture and/or susceptibility determinations collections were made of discrete fractions of cells within the upper 1 and 5%, and the lower 1, 5 and 10% of fluorescence intensity. Control populations consisted of the entire population of cells having been passed through the cytometer and sorter. Cell sort rates of circa 10^3/sec were deployed enabling collection of circa 10^4-5 cfu within 10 minutes. Cell concentrations were adjusted from the cytometer count by dilution with fresh PBS. Suspensions of collected cells were used immediately for microbiological analysis.
# Collections of poorly fluorescent cells from mid-log phase cultures were made and susceptibility re-determined towards tetradecylbenzalkonium chloride, and towards various other treatment agents.
# [2] = test system: E. coli K-12 C600::mTn5gusA-pgfp21 intergenic knockouts; assay: Susceptibility of putative intergenic knockouts towards cetrimide USP
# Description: Intergenic knockouts were made to E. coli K-12 C600::mTn5gusA-pgfp21 with respect to IG216, IG477, IG870, IG873, IG1602, IG1604 and IG1484 using the protocol described by Datsenko, et al. (Proceedings of the National Academy of Sciences of the United States of America 97, 6640-6645, 2000). Plasmid pKD3 was used as a template to generate PCR products with a selectable antibiotic resistance marker (chloramphenicol) and 40 nt homology extensions relating the genes flanking each targeted intergenic region. Modifications of the method included a 10-fold increase in the concentration of L-arabinose (10 mM) for induction of λ Red genes in the helper plasmid pKD46, and 50-fold increases in the amount of PCR product (500 ng) used to transform E. coli K-12 C600 containing pKD46. Further amendments to the method were associated with recovery of transformants following electroporation. […]
# Putative intergenic knockouts were grown as liquid culture in nutrient broth, harvested at mid-exponential phase, washed in PBS as described in section 2.1 (a) and adjusted to 1×10^5 cfu/ml in PBS. […] The viability of cells in the antimicrobial and control tubes was monitored after 1 hour incubation at 37° C. at 200 rpm in an orbital shaker. […]
# [3] = test system: E. coli CC118 overexpression and suppression mutants; assay: Antimicrobial susceptibility of conditional overexpression and antisense suppression strains (cetrimide challenge); conditions: relative to parental E. coli CC118, 9 μg/ml cetrimide 1 h
# Protocol: Conditional overexpression and anti-sense suppression strains of E. coli (Table 14) were grown as liquid cultures in nutrient broth. Expression of target sense and antisense sequences was induced by addition of IPTG (Bioline), during early exponential phase, to a final concentration of 0.1 mM. Cells were grown until mid-late exponential (1.75 h after IPTG addition) or to stationary phase (14.5 h after ITPG addition), and harvested by centrifugation (10,000 x g, 10 min) at 4° C. The supernatants were decanted and the pellets suspended into equal volumes of PBS. The centrifugation and washing steps were repeated twice, after which the pellets were re-suspended in PBS to an optical density (OD470 nm) of 1.0, corresponding to approximately 1-2×10^8 cfu/ml mid-exponential or stationary phase cells.
# Cells were exposed to 9 μg/ml cetrimide USP for 1 hr in PBS with final concentration of 5×10^7 cells/ml. Controls without the addition of the biocide containing the same concentration of cells and PBS were run in parallel. Following incubation samples (0.1 ml) were removed and serially diluted in lecithin (2% w/v)—tween 80 (3% w/v) broth as a specific neutralizer of quaternary ammonium biocides (Wright, et al., J. Appd. Bacteriol, 62, 309-314, 1986). Samples of appropriate dilutions were plated, in triplicate, onto nutrient agar and colonies counted after 16 h incubation at 37° C. Survival was expressed relative to untreated control suspensions that were similarly treated with IPTG. […] The susceptibility of the parental strain E. coli (CC118 towards cetrimide USP was investigated in the same experiments and was used as a reference to determine the effect of overexpression and antisense suppression of target sequences.
# [4] = test system: E. coli K-12 C600::mTn5gusA-pgfp21; assay: Time-dependent survival of FACS-sorted fractions exposed to tetradecylbenzalkonium chloride
# Protocol: In the latter set of experiments reaction mixtures included nutrient broth (25% normal strength) in order to facilitate growth during the exposure. This was necessary in order to get adequate killing by β-lactam antibiotics. At various time intervals samples (0.1 mL) were removed and serially diluted either in sterile phosphate buffered saline (pH 7, 0.1M) or lecithin (2% w/v)—tween 80 (3% w/v) broth as a specific neutralizer of quaternary ammonium biocides (Wright, et al., J. App. Bacterial. 62:309-314, 1986). Samples of appropriate dilutions were plated, in triplicate, onto nutrient agar and colonies counted after 16 hour incubation at 37° C. Survival was expressed relative to untreated control suspensions.
# as §1
# The FACS vantage was also deployed to separate populations of cells, from stationary phase cultures, corresponding to the lower (1, 5 and 10%) fluorescence intensity cells and the upper (1 and 5%) fluorescence intensity cells (FIG. 1). These cells were immediately subjected to exposure to tetradecyl-benzalkonium chloride (3.68 μg/mL) for various times up to 20 minutes. After neutralization in lecithin-tween 80 broth the numbers of surviving cells was determined by plate count. In all instances the shapes of the survival curves were non-linear indicating an initial rapid phase of killing followed by a plateau phase. […] Survival beyond 10 minutes exposure therefore reflected the presence of non-susceptible cells.
compound,measurement,setting,value
cetrimide [Cetrimide USP],percentage survival relative to untreated controls,"[1]; 0-5% FI fraction, cetrimide USP 0.5 μg/ml, 1 hour, SD in parenthesis",22 (3.7) %
same,percentage survival relative to untreated controls,"[1]; 95-100% FI fraction, cetrimide USP 0.5 μg/ml, 1 hour, SD in parenthesis",2.5 (0.97) %
same,percentage survival relative to untreated controls,"[1]; Control 0-100% fluorescence fraction, cetrimide USP 0.5 μg/ml, 1 hour, SD in parenthesis",18 (3.4) %
same,susceptibility of intergenic knockout clones compared with controls,"[2]; IG216, IG873, IG1484 and IG1602 knockouts, at both the lower and higher treatment level",profoundly changed
same,susceptibility of intergenic knockout clones compared with controls,"[2]; all developed clones (IG216, IG477, IG870, IG873, IG1602, IG1604, IG1484), 0.6 and 2.0 μg/ml, 1 hour",substantially reduced
same,Fold Change in persister fraction (fold increase),"[3]; strain lit (+), exponential phase, IPTG 0.1 mM 1.75 h",3.05 fold
same,Fold Change in persister fraction (fold increase),"[3]; strain lit (−), exponential phase, IPTG 0.1 mM 1.75 h",1.31 fold
same,Fold Change in persister fraction (fold decrease),"[3]; strain lit (−), stationary phase, IPTG 0.1 mM 14.5 h",4.08 fold decrease
same,Fold Change in persister fraction (fold increase),"[3]; strain mcrA (+), exponential phase, IPTG 0.1 mM 1.75 h",2.82 fold
same,Fold Change in persister fraction (fold increase),"[3]; strain pin (+), exponential phase, IPTG 0.1 mM 1.75 h",10.38 fold
same,Fold Change in persister fraction (fold increase),"[3]; strain pin (−), exponential phase, IPTG 0.1 mM 1.75 h",18.98 fold
same,Fold Change in persister fraction,"[3]; strain pin (−), stationary phase, IPTG 0.1 mM 14.5 h",No persisters detected
same,Fold Change in persister fraction (fold decrease),"[3]; strain yagL (+), exponential phase, IPTG 0.1 mM 1.75 h",1.01 fold
same,Fold Change in persister fraction (fold increase),"[3]; strain ykgK (+), exponential phase, IPTG 0.1 mM 1.75 h",22.85 fold
same,Fold Change in persister fraction (fold decrease),"[3]; strain ykgK (−), exponential phase, IPTG 0.1 mM 1.75 h",5.35 fold
same,Fold Change in persister fraction,"[3]; strain ykgK (−), stationary phase, IPTG 0.1 mM 14.5 h",No persisters detected
same,Fold Change in persister fraction (fold decrease),"[3]; strain ykgM (+), exponential phase, IPTG 0.1 mM 1.75 h",1.65 fold
same,Fold Change in persister fraction (fold decrease),"[3]; strain ykgM (−), exponential phase, IPTG 0.1 mM 1.75 h",1.83 fold
same,Fold Change in persister fraction,"[3]; strain ykgM (−), stationary phase, IPTG 0.1 mM 14.5 h",No persisters detected
Tetradecylbenzalkonium chloride,proportion of persister cells in the cell fraction,"[4]; least intensely fluorescent cell fraction (1%), stationary phase, 3.68 μg/mL, exposure up to 20 minutes",> 80%
same,survival of cells,"[4]; most fluorescently intense cells, stationary phase, 3.68 μg/mL, after 1 minute exposure",eradicated beyond detection
same,proportion of persisters in mid-log phase compared with stationary phase,[4]; poorly fluorescent cells from mid-log phase cultures,substantially reduced
"O=C(O)c1cn(C2CC2)c2cc(N3CCNCC3)c(F)cc2c1=O [Ciprofloxacin, ciprofloxacin]",percentage survival relative to untreated controls,"[1]; 0-5% FI fraction, ciprofloxacin 0.05 μg/ml, 1 hour, SD in parenthesis",44 (2.0) %
same,percentage survival relative to untreated controls,"[1]; 95-100% FI fraction, ciprofloxacin 0.05 μg/ml, 1 hour, SD in parenthesis",35 (3.6) %
same,percentage survival relative to untreated controls,"[1]; Control 0-100% fluorescence fraction, ciprofloxacin 0.05 μg/ml, 1 hour, SD in parenthesis",40 (0) %
"CC[C@H](C)[C@H](N)C1=N[C@H](C(=O)N[C@@H](CC(C)C)C(=O)N[C@H](CCC(=O)O)C(=O)N[C@H](C(=O)N[C@H]2CCCCNC(=O)[C@H](CC(N)=O)NC(=O)[C@@H](CC(=O)O)NC(=O)[C@H](Cc3cnc[nH]3)NC(=O)[C@@H](Cc3ccccc3)NC(=O)[C@H]([C@@H](C)CC)NC(=O)[C@@H](CCCN)NC2=O)[C@@H](C)CC)CS1 [Bacitracin, bacitracin] ({Ileψ(thiazoline)Cys}-L[dE]IK[dOrn]I[dF]H[dD]N; lactam 4-C)",percentage survival relative to untreated controls,"[1]; 0-5% FI fraction, bacitracin 0.7 mg/ml, 40 min, SD in parenthesis",83 (1.5) %
same,percentage survival relative to untreated controls,"[1]; 95-100% FI fraction, bacitracin 0.7 mg/ml, 40 min, SD in parenthesis",34 (4.6) %
same,percentage survival relative to untreated controls,"[1]; Control 0-100% fluorescence fraction, bacitracin 0.7 mg/ml, 40 min, SD in parenthesis",57 (8.5) %
"NCC[C@H](O)C(=O)N[C@@H]1C[C@H](N)[C@@H](O[C@H]2O[C@H](CN)[C@@H](O)[C@H](O)[C@H]2O)[C@H](O)[C@H]1O[C@H]1O[C@H](CO)[C@@H](O)[C@H](N)[C@H]1O [Amikacin, amikacin]",percentage survival relative to untreated controls,"[1]; 0-5% FI fraction, amikacin 0.75 μg/ml, 1 hour, SD in parenthesis",68 (17) %
same,percentage survival relative to untreated controls,"[1]; 95-100% FI fraction, amikacin 0.75 μg/ml, 1 hour, SD in parenthesis",32 (0) %
same,percentage survival relative to untreated controls,"[1]; Control 0-100% fluorescence fraction, amikacin 0.75 μg/ml, 1 hour, SD of triplicate in parenthesis",39 (3.0) %
